For one data set, the system named is F-ATP synthase. Particulars: read-out: IC50 against F-ATP synthase; cited from earlier work.
For data set [1], the system named is M. tuberculosis H37Rv (ATCC 27294), wt. Nature of the data set: microbe, parasite or virus in culture. It is filed as cell-based. As to conditions: Mycobacterium tuberculosis, ATCC27294|H37RV.
The subject of data set [2] is NC1=NC2(CCCCC2)N(c2ccc(OCc3cn(CCCCOc4ccc5ccc(=O)oc5c4)nn3)cc2)C(N)=N1. In words: purified protein, by the assay type. Particulars: pH 7.5.

In brackets after ≈: the same amount, converted by molar mass. Where two headings read alike, the source gives them in different places.

What is called IC50 is the concentration needed to halve the response being measured. Turning to `COc1nc2ccc(Br)cc2cc1[C@@H](c1ccccc1)[C@@](O)(CCN(C)C)c1cccc2ccccc12` [Bedaquiline], the IC50 in the data set on F-ATP synthase is 2.5 nM.

For `CO[C@H]1/C=C/O[C@@]2(C)Oc3c(C)c(O)c4c(O)c(c(/C=N/N5CCN(C)CC5)c(O)c4c3C2=O)NC(=O)/C(C)=C\C=C\[C@H](C)[C@H](O)[C@@H](C)[C@@H](O)[C@@H](C)[C@H](OC(C)=O)[C@@H]1C` [RIF, rifampicin], the MIC50 in data set [1] (read-out: MIC50, RIF (nM)) is 1.6 nM (≈ 0.00132 µg/mL).

`Nc1ccc(C(=O)O)c(O)c1` [PAS, para-aminosalicylic acid]: the MIC50 in data set [1] was 200 nM (≈ 0.0306 µg/mL).

For `NNC(=O)c1ccncc1` [INH, isoniazid], the MIC50 in data set [1] was found to be 400 nM (≈ 0.0549 µg/mL).

Take `O=[N+]([O-])c1cn2c(n1)OC[C@@H](OCc1ccc(OC(F)(F)F)cc1)C2` [PTM, pretomanid]: the MIC50 in data set [1] stood at 200 nM (≈ 0.0719 µg/mL).

In general, Km refers to the substrate concentration at which the rate is half of its maximum. As for “Ddn (Rv3547) (Mycobacterium tuberculosis H37Rv)”, in data set [2], the Km amounted to 3.47 ± 0.51 µM.

The values are drawn from publication PMC8237569 (Proceedings of the National Academy of Sciences of the …, 2021).
